{
  "source": "patent US8497265B2",
  "about": "“Heteroaryloxyheterocyclyl compounds as PDE10 inhibitors” (Amgen Inc., priority 2010, dated 2013)",
  "biological_target": "PDE10 (Mus musculus, UniProt Q8CA95)",
  "sequence (Q8CA95 whole entry, looked up)": "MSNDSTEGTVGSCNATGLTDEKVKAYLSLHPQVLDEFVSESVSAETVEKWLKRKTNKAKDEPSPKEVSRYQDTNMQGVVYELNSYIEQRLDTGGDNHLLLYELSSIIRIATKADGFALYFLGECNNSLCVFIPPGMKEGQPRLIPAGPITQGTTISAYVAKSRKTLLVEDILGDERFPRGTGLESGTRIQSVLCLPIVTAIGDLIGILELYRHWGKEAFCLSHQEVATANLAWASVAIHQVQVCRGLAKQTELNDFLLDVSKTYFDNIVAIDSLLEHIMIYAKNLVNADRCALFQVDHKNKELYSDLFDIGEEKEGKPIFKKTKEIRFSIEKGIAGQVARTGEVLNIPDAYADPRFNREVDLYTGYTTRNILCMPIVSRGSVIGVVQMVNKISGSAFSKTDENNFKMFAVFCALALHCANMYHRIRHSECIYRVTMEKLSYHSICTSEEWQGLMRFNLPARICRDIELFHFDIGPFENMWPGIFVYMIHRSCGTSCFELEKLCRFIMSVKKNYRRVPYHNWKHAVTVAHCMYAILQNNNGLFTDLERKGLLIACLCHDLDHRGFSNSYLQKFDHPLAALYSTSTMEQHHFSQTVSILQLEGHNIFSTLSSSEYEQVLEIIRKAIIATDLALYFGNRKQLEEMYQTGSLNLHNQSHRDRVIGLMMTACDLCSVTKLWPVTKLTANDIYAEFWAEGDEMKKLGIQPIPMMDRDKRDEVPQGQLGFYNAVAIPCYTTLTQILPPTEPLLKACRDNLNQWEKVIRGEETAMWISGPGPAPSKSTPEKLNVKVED",
  "test": "PDE10 enzyme inhibition (IMAP TR-FRET assay)",
  "format": "biochemical",
  "settings": "Table 8A",
  "description": "MPDE10A7 Enzyme Activity and Inhibition\nEnzyme Activity. An IMAP TR-FRET assay was used to analyze the enzyme activity (Molecular Devices Corp., Sunnyvale Calif.). 5 μL, of serial diluted PDE10A (BPS Bioscience, San Diego, Calif.) or tissue homogenate was incubated with equal volumes of diluted fluorescein labeled cAMP or cGMP for 60 min in 384-well polystyrene assay plates (Corning, Corning, N.Y.) at room temperature. After incubation, the reaction was stopped by adding 60 μL, of diluted binding reagents and was incubated for 3 hours to overnight at room temperature. The plates were read on an Envision (Perkin Elmer, Waltham, Mass.) for time resolved fluorescence resonance energy transfer. The data were analyzed with GraphPad Prism (La Jolla, Calif.).\nEnzyme Inhibition. To check the inhibition profile, 5 μL of serial diluted compounds were incubated with 5 μL of diluted PDE10 enzyme (BPS Bioscience, San Diego, Calif.) or tissue homogenate in a 384-well polystyrene assay plate (Corning, Corning, N.Y.) for 30 min at room temperature. […] The reaction was stopped by adding 60 μL of diluted binding reagents and plates were read on an Envision (Perkin Elmer, Waltham, Mass.) for time resolved fluorescence resonance energy transfer. The data were analyzed with GraphPad Prism (La Jolla, Calif.).",
  "data": [
    {"substance": "1-(4-(3-((1-(quinolin-2-yl)azetidin-3-yl)oxy)pyrazin-2-yl)phenyl)ethanone [Example 10.26]", "values": [
      {"measurement": "IC50", "value": 0.0244, "unit": "µM"}
    ]}
  ]
}
